SMILES strings stand for the structures.

In the assay the target is T1, CFTR (Homo sapiens, UniProt P13569, DEL508-508).
T1 construct: Primary CF airway epithelial cells were obtained from the UNC Cystic Fibrosis Tissue Procurement and Cell Culture Core; host or cells: primary CF airway epithelial cells, differentiated at the air-liquid interface
As to the kind of experiment: Equivalent current assay in primary CF airway epithelial cells (NAUC, combination with 1st site corrector FDL169 or VX-809). Type of assay: cell-based. The settings on record: 37° C., 24 h.

Setting [1] is: test compound 1 μM in combination with 1st site corrector VX-809 (3 μM).
Setting [2] is: test compound 3 μM in combination with 1st site corrector VX-809 (3 μM).
Where [3] appears, read: test compound 10 μM in combination with 1st site corrector VX-809 (3 μM).
Setting [4] is: test compound 1 μM in combination with 1st site corrector FDL169 (3 μM).
The mark [5] stands for this setting: test compound 3 μM in combination with 1st site corrector FDL169 (3 μM).
The mark [6] stands for this setting: test compound 10 μM in combination with 1st site corrector FDL169 (3 μM).

T1 sequence (P13569 with tags, fused parts or gaps DEL508-508): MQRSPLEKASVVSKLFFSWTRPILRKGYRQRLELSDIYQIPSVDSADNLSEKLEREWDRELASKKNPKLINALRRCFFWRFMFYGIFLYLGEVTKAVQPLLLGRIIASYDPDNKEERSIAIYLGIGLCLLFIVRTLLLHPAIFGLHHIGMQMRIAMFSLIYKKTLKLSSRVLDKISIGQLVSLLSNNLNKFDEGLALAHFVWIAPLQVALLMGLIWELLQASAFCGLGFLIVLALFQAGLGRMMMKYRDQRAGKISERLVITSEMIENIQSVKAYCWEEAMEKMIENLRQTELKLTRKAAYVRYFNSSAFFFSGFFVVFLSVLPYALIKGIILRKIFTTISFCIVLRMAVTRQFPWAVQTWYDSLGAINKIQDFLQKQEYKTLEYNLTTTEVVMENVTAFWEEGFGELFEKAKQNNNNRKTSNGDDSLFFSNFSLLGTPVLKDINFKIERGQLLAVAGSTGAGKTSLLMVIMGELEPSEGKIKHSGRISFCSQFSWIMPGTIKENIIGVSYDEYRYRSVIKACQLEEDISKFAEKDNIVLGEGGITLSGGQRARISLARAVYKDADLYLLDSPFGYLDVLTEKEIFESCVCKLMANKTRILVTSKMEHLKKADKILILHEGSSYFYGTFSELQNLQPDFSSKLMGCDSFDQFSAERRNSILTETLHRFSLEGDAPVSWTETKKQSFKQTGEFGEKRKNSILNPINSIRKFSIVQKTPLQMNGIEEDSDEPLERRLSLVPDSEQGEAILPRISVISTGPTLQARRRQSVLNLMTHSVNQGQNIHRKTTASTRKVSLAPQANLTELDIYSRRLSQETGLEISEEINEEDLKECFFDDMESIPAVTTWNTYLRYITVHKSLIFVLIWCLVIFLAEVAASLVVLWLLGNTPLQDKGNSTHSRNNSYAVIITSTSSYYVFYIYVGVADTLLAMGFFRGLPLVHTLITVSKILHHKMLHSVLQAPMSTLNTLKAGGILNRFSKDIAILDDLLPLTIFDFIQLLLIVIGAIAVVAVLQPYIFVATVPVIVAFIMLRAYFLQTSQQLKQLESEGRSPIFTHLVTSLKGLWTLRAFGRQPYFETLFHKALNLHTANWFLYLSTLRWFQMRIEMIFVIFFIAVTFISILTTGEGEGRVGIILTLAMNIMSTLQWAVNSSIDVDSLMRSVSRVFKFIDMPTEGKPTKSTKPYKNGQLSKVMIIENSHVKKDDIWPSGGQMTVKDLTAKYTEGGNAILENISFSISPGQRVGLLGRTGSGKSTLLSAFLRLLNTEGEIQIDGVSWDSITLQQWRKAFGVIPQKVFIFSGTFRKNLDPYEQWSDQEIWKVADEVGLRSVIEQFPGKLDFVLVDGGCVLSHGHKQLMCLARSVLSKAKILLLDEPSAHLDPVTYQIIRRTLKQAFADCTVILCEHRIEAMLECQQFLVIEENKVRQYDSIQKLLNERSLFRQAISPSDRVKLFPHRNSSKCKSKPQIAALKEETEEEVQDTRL

For `O=C(Nc1cc(Cl)cc(Cl)c1)C1C(C(F)(F)c2cccc(C(F)(F)F)c2)NC2(C(=O)Nc3c(Cl)cc(Cl)cc32)C1C(=O)O` (stereo not shown) [Example 70.c], the “Nauc @ 1 μM” value under setting [1] is reported as “+ (NAUC “+” refers to an observed NAUC <140% of positive control)”. In addition, the “Nauc @ 3 μM” value under setting [2] is recorded as “+ (NAUC “+” refers to an observed NAUC <140% of positive control)”. Also, the “Nauc @ 10 μM” value under setting [3] is “+++ (NAUC “+++” refers to an observed NAUC>170% of positive control)”.

In the case of `Cc1ccc(C(F)(F)C2NC3(C(=O)Nc4c(Cl)cc(Cl)cc43)C(C(=O)O)C2C(=O)Nc2cc(Cl)cc(Cl)c2)cc1` (stereo not shown) [Example 71.a], under setting [3], the “Nauc @ 10 μM” value is recorded as “+++ (NAUC “+++” refers to an observed NAUC>170% of positive control)”.

`O=C(Nc1cc(Cl)cc(Cl)c1)C1C(C(F)(F)c2ccccn2)NC2(C(=O)Nc3c(Cl)cc(Cl)cc32)C1C(=O)O` (stereo not shown) [Example 72.a]: the “Nauc @ 10 μM” value under setting [3] was “+ (NAUC “+” refers to an observed NAUC <140% of positive control)”.

With `O=C(Nc1cc(Cl)cc(Cl)c1)C1C(C(F)(F)c2ccccn2)NC2(C(=O)Nc3c(Cl)cc(Cl)cc32)C1C(=O)O` (stereo not shown) [Example 72.b], the “Nauc @ 10 μM” value under setting [3] was “+ (NAUC “+” refers to an observed NAUC <140% of positive control)”.

As for `O=C(Nc1cc(Cl)cc(Cl)c1)C1C(C(F)(F)c2ccccn2)NC2(C(=O)Nc3c(Cl)cc(Cl)cc32)C1C(=O)O` (stereo not shown) [Example 72.c], under setting [3], the “Nauc @ 10 μM” value is given as “++ (NAUC “++” refers to an observed NAUC 170-140% of positive control)”.

Regarding `O=C(Nc1cc(Cl)cc(Cl)c1)C1C(C(F)(F)c2ccc(C(F)(F)F)cc2)NC2(C(=O)Nc3c(Cl)cc(Cl)cc32)C1C(=O)O` (stereo not shown) [Example 73.a], under setting [3], the “Nauc @ 10 μM” value is listed as “+ (NAUC “+” refers to an observed NAUC <140% of positive control)”.

As for `O=C(Nc1cc(Cl)cc(Cl)c1)C1C(C(F)(F)c2ccc(C(F)(F)F)cc2)NC2(C(=O)Nc3c(Cl)cc(Cl)cc32)C1C(=O)O` (stereo not shown) [Example 73.b], the “Nauc @ 10 μM” value under setting [3] is recorded as “+ (NAUC “+” refers to an observed NAUC <140% of positive control)”.

Take `O=C(Nc1cc(Cl)cc(Cl)c1)C1C(C(F)(F)c2ccc(C(F)(F)F)cc2)NC2(C(=O)Nc3c(Cl)cc(Cl)cc32)C1C(=O)O` (stereo not shown) [Example 73.c]: the “Nauc @ 1 μM” value under setting [1] is listed as “+ (NAUC “+” refers to an observed NAUC <140% of positive control)”. Also, under setting [2], the “Nauc @ 3 μM” value is “+ (NAUC “+” refers to an observed NAUC <140% of positive control)”. In addition, under setting [3], the “Nauc @ 10 μM” value is “+++ (NAUC “+++” refers to an observed NAUC>170% of positive control)”.

Consider `O=C(Nc1cc(Cl)cc(Cl)c1)C1C(C(F)(F)c2cccnc2)NC2(C(=O)Nc3c(Cl)cc(Cl)cc32)C1C(=O)O` (stereo not shown) [Example 74.a], for which the “Nauc @ 10 μM” value under setting [3] was “+ (NAUC “+” refers to an observed NAUC <140% of positive control)”.

For `O=C(Nc1cccc(O)c1)C1C2CC(F)(F)CN2C2(C(=O)Nc3c(Cl)cc(Cl)cc32)C1C(=O)O` (stereo not shown) [Example 76.a], the “Nauc @ 10 μM” value under setting [3] is reported as “+ (NAUC “+” refers to an observed NAUC <140% of positive control)”.

Take `O=C(Nc1ccc(O)cc1)C1C2CC(F)(F)CN2C2(C(=O)Nc3c(Cl)cc(Cl)cc32)C1C(=O)O` (stereo not shown) [Example 77.a]: the “Nauc @ 10 μM” value under setting [3] is recorded as “+ (NAUC “+” refers to an observed NAUC <140% of positive control)”.

Take `O=C(Nc1ccccc1O)C1C2CC(F)(F)CN2C2(C(=O)Nc3c(Cl)cc(Cl)cc32)C1C(=O)O` (stereo not shown) [Example 78.a]: the “Nauc @ 10 μM” value under setting [3] was “+ (NAUC “+” refers to an observed NAUC <140% of positive control)”.

As for `O=C(Nc1cc(Cl)cc(Cl)c1)C1CN(CC(F)(F)F)C2(C(=O)Nc3c(Cl)cc(Cl)cc32)C1C(=O)O` (stereo not shown) [Example 79a], the “Nauc @ 1 μM” value under setting [1] was “+ (NAUC “+” refers to an observed NAUC <140% of positive control)”. Further, the “Nauc @ 3 μM” value under setting [2] is given as “+ (NAUC “+” refers to an observed NAUC <140% of positive control)”. Moreover, the “Nauc @ 10 μM” value under setting [3] was “+ (NAUC “+” refers to an observed NAUC <140% of positive control)”.

With `O=C(Nc1cc(Cl)cc(Cl)c1)C1CN(CC(F)(F)F)C2(C(=O)Nc3c(Cl)cc(Cl)cc32)C1C(=O)O` (stereo not shown) [Example 79b], under setting [1], the “Nauc @ 1 μM” value is given as “+ (NAUC “+” refers to an observed NAUC <140% of positive control)”. The “Nauc @ 3 μM” value under setting [2] is “+ (NAUC “+” refers to an observed NAUC <140% of positive control)”. For the same molecule, the “Nauc @ 10 μM” value under setting [3] was “++ (NAUC “++” refers to an observed NAUC 170-140% of positive control)”.

As for `O=C(Nc1cc(Cl)cc(Cl)c1)C1CN(CC(F)(F)F)C2(C(=O)Nc3c(Cl)cc(Cl)cc32)C1C(=O)O` (stereo not shown) [Example 79c], the “Nauc @ 1 μM” value under setting [1] is listed as “+ (NAUC “+” refers to an observed NAUC <140% of positive control)”. For the same molecule, under setting [2], the “Nauc @ 3 μM” value is recorded as “+ (NAUC “+” refers to an observed NAUC <140% of positive control)”. The “Nauc @ 10 μM” value under setting [3] was “+ (NAUC “+” refers to an observed NAUC <140% of positive control)”.

On to `CC(C)(C)CN(C(=O)[C@H]1[C@H]2C[C@](C)(OCc3ccccc3)CN2[C@]2(C(=O)Nc3c(Cl)cc(Cl)cc32)[C@H]1C(=O)O)c1cc(Cl)cc(Cl)c1` [Example 90, (1′R,2′S,3R,6′S,7a′R)-6′-(benzyloxy)-5,7-dichloro-1-((3,5-dichlorophenyl)(neopentyl)carbamoyl)-6′-methyl-2-oxo-1′,2′,5′,6′,7′,7a′-hexahydrospiro[indoline-3,3′-pyrrolizine]-2′-carboxylic acid], for which the “Nauc @ 1 μM” value under setting [4] was “+ (NAUC “+” refers to an observed NAUC <140% of positive control)”. The “Nauc @ 3 μM” value under setting [5] is recorded as “+ (NAUC “+” refers to an observed NAUC <140% of positive control)”.

Take `CC(C)(C)CN(C(=O)[C@H]1[C@H]2C[C@](C)(O)CN2[C@]2(C(=O)Nc3c(Cl)cc(Cl)cc32)[C@H]1C(=O)O)c1cc(Cl)cc(Cl)c1` [Example 91, (1′R,2′S,3R,6′S,7a′R)-5,7-dichloro-1′-((3,5-dichlorophenyl)(neopentyl)carbamoyl)-6′-hydroxy-6′-methyl-2-oxo-1′,2′,5′,6′,7′,7a′-hexahydrospiro[indoline-3,3′-pyrrolizine]-2′-carboxylic acid]: under setting [4], the “Nauc @ 1 μM” value is “++ (NAUC “++” refers to an observed NAUC 170-140% of positive control)”. The “Nauc @ 3 μM” value under setting [5] is “++ (NAUC “++” refers to an observed NAUC 170-140% of positive control)”.

Regarding `CN(C(=O)[C@H]1[C@H]2C[C@](C)(OCc3ccccc3)CN2[C@]2(C(=O)Nc3c(Cl)cc(Cl)cc32)[C@H]1C(=O)O)c1cc(Cl)cc(Cl)c1` [Example 92], the “Nauc @ 1 μM” value was “+ (NAUC “+” refers to an observed NAUC <140% of positive control)” under setting [4] and “++ (NAUC “++” refers to an observed NAUC 170-140% of positive control)” under setting [1]. Further, the “Nauc @ 3 μM” value runs as follows: under setting [5], “++ (NAUC “++” refers to an observed NAUC 170-140% of positive control)”; under setting [2], “+++ (NAUC “+++” refers to an observed NAUC>170% of positive control)”. Besides, the “Nauc @ 10 μM” value under setting [6] is on record as “+++ (NAUC “+++” refers to an observed NAUC>170% of positive control)” and the “Nauc @ 10 μM” value under setting [3] is “+++ (NAUC “+++” refers to an observed NAUC>170% of positive control)”.

`C[C@]1(OCc2ccccc2)C[C@@H]2[C@H](C(=O)N(CC3CC3)c3cc(Cl)cc(Cl)c3)[C@H](C(=O)O)[C@@]3(C(=O)Nc4c(Cl)cc(Cl)cc43)N2C1` [Example 93]: under setting [4], the “Nauc @ 1 μM” value was “+++ (NAUC “+++” refers to an observed NAUC>170% of positive control)”. The “Nauc @ 3 μM” value under setting [5] is recorded as “+++ (NAUC “+++” refers to an observed NAUC>170% of positive control)”. Further, under setting [6], the “Nauc @ 10 μM” value is given as “++ (NAUC “++” refers to an observed NAUC 170-140% of positive control)”.

In the case of `C[C@]1(OCc2ccccc2)C[C@@H]2[C@H](C(=O)N(CC3CCCC3)c3cc(Cl)cc(Cl)c3)[C@H](C(=O)O)[C@@]3(C(=O)Nc4c(Cl)cc(Cl)cc43)N2C1` [Example 94], the “Nauc @ 1 μM” value under setting [4] was “++ (NAUC “++” refers to an observed NAUC 170-140% of positive control)”. Also, the “Nauc @ 3 μM” value under setting [5] is listed as “++ (NAUC “++” refers to an observed NAUC 170-140% of positive control)”.

As to `CC(C)(C)C(C)(C)CN(C(=O)[C@H]1[C@H]2C[C@](C)(OCc3ccccc3)CN2[C@]2(C(=O)Nc3c(Cl)cc(Cl)cc32)[C@H]1C(=O)O)c1cc(Cl)cc(Cl)c1` [Example 95], under setting [4], the “Nauc @ 1 μM” value is recorded as “+++ (NAUC “+++” refers to an observed NAUC>170% of positive control)”. Moreover, the “Nauc @ 3 μM” value under setting [5] is “+++ (NAUC “+++” refers to an observed NAUC>170% of positive control)”. Further, the “Nauc @ 10 μM” value under setting [6] is “+++ (NAUC “+++” refers to an observed NAUC>170% of positive control)”.

Take `CC(C)(C)C(C)(C)CN(C(=O)[C@H]1[C@H]2C[C@](C)(O)CN2[C@]2(C(=O)Nc3c(Cl)cc(Cl)cc32)[C@H]1C(=O)O)c1cc(Cl)cc(Cl)c1` [Example 96]: the “Nauc @ 1 μM” value under setting [4] was “+++ (NAUC “+++” refers to an observed NAUC>170% of positive control)”. Further, the “Nauc @ 3 μM” value under setting [5] is recorded as “+++ (NAUC “+++” refers to an observed NAUC>170% of positive control)”. The “Nauc @ 10 μM” value under setting [6] is given as “+ (NAUC “+” refers to an observed NAUC <140% of positive control)”.

Consider `CN(C(=O)[C@H]1[C@H]2CC(F)(F)CN2C2(C(=O)Nc3cc(Cl)ccc32)[C@H]1C(=O)O)c1cc(Cl)cc(Cl)c1` (stereo partly shown) [Example 101], for which the “Nauc @ 1 μM” value under setting [4] is “+ (NAUC “+” refers to an observed NAUC <140% of positive control)”. Besides, under setting [5], the “Nauc @ 3 μM” value is “+ (NAUC “+” refers to an observed NAUC <140% of positive control)”.

On to `CN(C(=O)[C@H]1[C@H]2CC(F)(F)CN2C2(C(=O)Nc3ccccc32)[C@H]1C(=O)O)c1cc(Cl)cc(Cl)c1` (stereo partly shown) [Example 102], for which, under setting [3], the “Nauc @ 10 μM” value is recorded as “+ (NAUC “+” refers to an observed NAUC <140% of positive control)”.

Consider `COc1ccc2c(c1)C1(C(=O)N2)[C@@H](C(=O)O)[C@@H](C(=O)N(C)c2cc(Cl)cc(Cl)c2)[C@H]2CC(F)(F)CN21` (stereo partly shown) [Example 103], for which the “Nauc @ 1 μM” value under setting [4] was “+ (NAUC “+” refers to an observed NAUC <140% of positive control)”. For the same molecule, the “Nauc @ 3 μM” value under setting [5] is recorded as “+ (NAUC “+” refers to an observed NAUC <140% of positive control)”. The “Nauc @ 10 μM” value under setting [6] is on record as “+ (NAUC “+” refers to an observed NAUC <140% of positive control)”.
